Drawing on PubChem BioAssay (NCI), this text covers GI50 and TGI for 14 compounds.

Holding throughout (assay): growth of human tumour cells (NCI), 48 h
Assay [1] has as its system HOP-92 NSCLC.
Assay [2] deals with SK-MEL-5 melanoma.
The test system of assay [3] is TK-10 renal.
The test system of assay [4] is MDA-MB-231 breast.
Assay [5] relates to SR leukemia.
In assay [6] the test system is HOP-62 NSCLC.
Assay [7] relates to SN12C renal.
For assay [8], the system named is SNB-19 CNS.
The test system of assay [9] is SF-295 CNS.
In assay [10] the test system is MALME-3M melanoma.

Values joined by “and” are separate entries in the source; they are usually repeats but may differ in a detail not shown here. Identical values can stand only once.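 Five concentrations, 48 hours, 96-well plates. Abbreviation: GI50, concentration required for 50% inhibition of growth. Definition used: TGI = concentration required for complete inhibition of growth.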

As for `COc1cc2cc3c(c(O)c2c(O)c1-c1c(OC)cc2cc4c(c(O)c2c1O)C(=O)O[C@H](C)C4)C(=O)O[C@H](C)C3`, the GI50 in assay [1] is 31.3 µM; in assay [2], 21800 nM; in assay [3] it was 60.3 µM; in assay [4], 16200 nM; in assay [5], 70600 nM; in [6], 26900 nM. Further, the GI50 in assay [7] is 18300 nM; in assay [8], 32300 nM; in assay [9], 24500 nM. The TGI in assay [1] is 74.3 µM; in [2], 39.1 µM; in [3] it was above 100 µM; in assay [4], 42 µM; in assay [5], above 100 µM; in assay [6], 62.7 µM. Moreover, the results for the TGI in assay [7], in [8] and in assay [9] were 38.8 µM, 99.2 µM and 78.1 µM, respectively.
Take `COc1ccc(Cc2nc3cc(OC)c(OC)cc3c(=O)[nH]2)cc1`: the GI50 in assay [1] was 21.9 µM; in [2], 9330 nM; in assay [3], 11.8 µM; in [4], 9830 nM; in assay [6], 8690 nM; in assay [7], 11200 nM. The GI50 is 9530 nM in assay [10], 7230 nM in [8] and 5210 nM in [9]. Moreover, the TGI in assay [1] was above 100 µM; in [2] it was 28.8 µM; in assay [3] it was 54 µM; in assay [4], above 100 µM; in assay [6], above 81.5 µM; in assay [7], above 100 µM. Further, the TGI in assay [10] is 30.3 µM; in [8], above 100 µM; in [9], above 26.9 µM.
As for `O=C(N/N=C/c1ccc(F)cc1)c1ccc(C(F)(F)F)nc1Nc1cccc(C(F)(F)F)c1`, the GI50 in [2] is 1620 nM; in [3], 0.582 µM; in assay [4], 1230 nM; in [5] it was 426 nM; in assay [6], 1200 nM; in assay [7], 1630 nM. In addition, the GI50 in assay [10] was 1280 nM; in assay [8], 1510 nM; in [9], 744 nM. For the same compound, the TGI worked out at 4.48 µM in assay [2]; 3.86 µM in [3]; 4.82 µM in assay [4]; 2.4 µM in assay [5]; 4.85 µM in assay [6]; 7.73 µM in assay [7]. In addition, the TGI in assay [10] is 4.68 µM; in [8], 7.99 µM; in [9], 2.69 µM.
Take `N#CC(NC(=O)CCl)=C(Cl)Cl`: the GI50 in assay [2] is 1570 nM; in assay [3], 1.74 µM; in assay [4] it was 1730 nM; in assay [5], 702 nM; in assay [6], 2150 nM; in assay [7], 1730 nM. In addition, the GI50 in [10] is 1490 nM; in assay [8], 1670 nM; in assay [9] it was 2740 nM. Besides, the TGI in assay [2] was found to be 3.27 µM; in assay [3], 3.4 µM; in assay [4] it was 3.24 µM; in assay [5] it was 2.68 µM; in assay [6], 4.83 µM; in assay [7] it was 3.26 µM. The TGI in assay [10] amounted to 3.02 µM; in assay [8], 3.17 µM; in assay [9], 8.01 µM.
Take `COC(=O)[C@]1(C)CCC[C@]2(C)[C@@H]1CCC13C[C@@H](C=CO1)[C@@H](C)CC32O` (some centres not stated): the GI50 is 22 µM in assay [1]; 34000 nM in assay [2]; 65900 nM in assay [4]; 17100 nM in assay [5]; above 100000 nM in assay [6]; above 100000 nM in [7]. For the same compound, the figures for the GI50 in assay [8] and in assay [9] were above 100000 nM and 27500 nM, respectively. The TGI in assay [1], in assay [2], in [4], in assay [5], in assay [6] and in assay [7] was above 100 µM throughout. Further, the TGI in assay [8] is above 100 µM; in [9], 88.7 µM.
`OCC#Cc1ccccc1C#Cc1ccc(C#Cc2ccccc2)cc1`: the GI50 was 11800 nM in [2]; 13 µM in assay [3]; 20000 nM in assay [4]; 11500 nM in [5]; 19000 nM in assay [7]; 35900 nM in assay [8]. Further, in [9], the GI50 was 37700 nM. Further, the TGI in assay [2] is 25.8 µM; in assay [3], 32.9 µM; in assay [4], 37.5 µM; in [5] it was 44.8 µM; in assay [7], 35.6 µM; in assay [8], above 100 µM. For the same compound, the TGI in [9] is above 100 µM.
In the case of `Cc1ccnc(Nc2ccc([N+](=O)[O-])c(NCCN3CCOCC3)n2)c1`, the GI50 in assay [2] was 5.64 nM; in assay [3], 18.5 µM; in [4] it was 21.3 nM and 37.9 nM; in [5] it was 3.76 nM; in assay [6], 6.57 nM; in [7], 42.5 nM and 48 nM. Further, the values for the GI50 in [10], in assay [8] and in assay [9] were 6.17 nM, 31.2 nM and 3.55 nM, respectively. Besides, the TGI in [2] was 0.206 µM and 0.315 µM; in [3], 62 µM; in assay [4], 48.5 µM; in [5], 63.5 µM; in assay [6] it was 71.8 µM; in [7], above 100 µM. This compound gave a TGI in assay [9] of 29.6 µM.
Take `NC(=O)c1ncn(C2OC(CO)C(O)C2O)c1N` (configuration not stated): the GI50 is above 100 µM in assay [1]; above 100000 nM in assay [2]; above 100 µM in assay [3]; above 100000 nM in assay [4]; above 100000 nM in assay [6]; above 100000 nM in assay [7]. In addition, the GI50 in assay [10], in assay [8] and in [9] was above 100000 nM each time. For the same compound, the TGI in assay [1], in assay [2], in assay [3], in assay [4], in assay [6] and in [7] was above 100 µM each time. Besides, the TGI in [10], in [8] and in assay [9] was above 100 µM each time.
For `O=C(O)Cn1ccc(=O)c2cc([N+](=O)[O-])ccc21`, the TGI in assay [2] is above 100 µM; in assay [3], above 100 µM; in assay [4], 33.5 µM; in assay [5] it was above 100 µM; in [6], above 100 µM; in assay [7] it was above 100 µM. The TGI in assay [10], in assay [8] and in assay [9] was above 100 µM each time.
Regarding `CCOc1ccc(Nc2nc(-c3c(C)nc4ncccn34)cs2)cc1`, the GI50 in assay [1] was 0.0362 µM; in assay [2], 45.3 nM; in [3], 12.8 µM; in assay [4], 79.7 nM; in assay [5], 15.3 nM; in [6], 30.6 nM. Also, the GI50 in [7] was 76.9 nM; in assay [8] it was 53.8 nM; in [9], below 10 nM. Also, the TGI in assay [1] came to 13.4 µM; in assay [2] it was 1.96 µM; in [3] it was 43 µM; in assay [4] it was 22.6 µM; in assay [5], 19.7 µM; in [6], 18.4 µM. The TGI amounted to 28.2 µM in assay [7], 23.5 µM in assay [8] and 15.3 µM in assay [9].
On to `O=C(Nc1ccc(C(F)(F)F)cc1[N+](=O)[O-])c1cccnc1`, for which the TGI in assay [2], in assay [3], in assay [4], in assay [5], in assay [6] and in assay [7] was above 100 µM throughout. In addition, the TGI was 8.32 µM in assay [10], above 100 µM in assay [8] and 23.9 µM in assay [9].
Take `O=c1[nH]c2ccc([N+](=O)[O-])c(Cl)c2c2ccccc12`: the TGI in assay [2] was 13 µM; in assay [3], 11.3 µM; in assay [4], 23.6 µM; in [5], 7.59 µM; in assay [6] it was above 100 µM; in [7], 14.4 µM. Besides, the values for the TGI in [10], in assay [8] and in [9] were 27.6 µM, 10.5 µM and 9.18 µM, respectively.
`COc1cc(/C=C\c2cc(OC)c(OC)c(OC)c2)cc(NS(=O)(=O)c2ccc(Cl)cc2)c1OC`: the GI50 in [1] is 0.72 µM; in [2], 297 nM; in assay [3] it was 0.779 µM; in [4] it was 1160 nM; in assay [5] it was 406 nM; in assay [6], 414 nM. In addition, the GI50 in assay [7] is 750 nM; in [8], 745 nM; in assay [9] it was 319 nM. For the same compound, the TGI in assay [1] is 72.3 µM; in [2], 1.17 µM; in [3] it was 99.6 µM; in [4] it was above 100 µM; in [5], 10.5 µM; in assay [6] it was above 100 µM. For the same compound, the TGI in assay [7] was above 100 µM; in [8], above 100 µM; in [9], 84 µM.
Turning to `COc1cccc(C2C(C#N)=C(N)Oc3cc4c(cc32)OCO4)c1` (configuration not stated), the GI50 is 33.2 nM in assay [2]; 0.728 µM in [3]; 695 nM in assay [4]; 29.1 nM in assay [5]; 50.1 nM in assay [6]; 77.8 nM in assay [7]. Moreover, the GI50 in [10] is 50.1 nM; in [8] it was 68.2 nM; in assay [9], 35 nM. Besides, the TGI in assay [2] is 3.76 µM; in assay [3], 48.4 µM; in assay [4] it was above 52.1 µM; in assay [5], 27.8 µM; in assay [6], 27.2 µM; in assay [7], above 46.2 µM. Also, the values for the TGI in assay [10], in assay [8] and in [9] were 31.4 µM, above 100 µM and 22 µM, respectively.
